# Paper PMC5218480 (PLoS ONE, 2017)
# Test system: MV-4-11 cells
# Assay: Gene expression microarray analysis (Affymetrix PrimeView) and GSEA
# Type: cell-based, human
# Set-up: RFU PODN (11730768_x_at) / Fold change /veh PODN (11730768_x_at) / RFU LINC00158 (11744669_a_at) / Fold change /veh LINC00158 (11744669_a_at) / RFU DUSP10 (11751237_a_at) / Fold change /veh DUSP10 (11751237_a_at) / RFU ID3 (11757404_x_at) / Fold change /veh ID3 (11757404_x_at) / RFU PLEKHG5 (11737974_s_at) / Fold change /veh PLEKHG5 (11737974_s_at) / RFU LRRC4B (11730491_at) / Fold change /veh LRRC4B (11730491_at) / RFU GIMAP4 (11747438_a_at) / Fold change /veh GIMAP4 (11747438_a_at) / RFU KRT8 (11758183_x_at) / Fold change /veh KRT8 (11758183_x_at) / RFU CNN1 (11734310_a_at) / Fold change /veh CNN1 (11734310_a_at) / RFU VPS37D (11726825_at) / Fold change /veh VPS37D (11726825_at) / RFU C10orf10 (11716522_x_at) / Fold change /veh C10orf10 (11716522_x_at) / RFU KIR2DL2 /// KIR2DL4 /// KIR2DL5A /// KIR2DL5B /// KIR2DS1 /// KIR2DS2 /// KIR2DS3 /// KIR2DS4 /// KIR3DL3 /// KIR3DL3 /// KIR3DS1 (11738374_at) / Fold change /veh KIR2DL2 /// KIR2DL4 /// KIR2DL5A /// KIR2DL5B /// KIR2DS1 /// KIR2DS2 /// KIR2DS3 /// KIR2DS4 /// KIR3DL3 /// KIR3DL3 /// KIR3DS1 (11738374_at) / RFU C1QL1 (11718748_at) / Fold change /veh C1QL1 (11718748_at) / RFU TMPRSS4 (11747572_a_at) / Fold change /veh TMPRSS4 (11747572_a_at) / RFU HAMP (11756126_x_at) / Fold change /veh HAMP (11756126_x_at) / RFU RNFT2 (11725882_a_at) / Fold change /veh RNFT2 (11725882_a_at) / RFU NR4A2 (11747474_a_at) / Fold change /veh NR4A2 (11747474_a_at) / RFU ABCC12 (11746883_a_at) / Fold change /veh ABCC12 (11746883_a_at) / RFU TMEM136 (11760407_x_at) / Fold change /veh TMEM136 (11760407_x_at) / RFU CLDN22 /// WWC2 (11732394_at) / Fold change /veh CLDN22 /// WWC2 (11732394_at) / RFU HLA-DPB1 (11760878_x_at) / Fold change /veh HLA-DPB1 (11760878_x_at) / RFU SPINT1 (11716480_a_at) / Fold change /veh SPINT1 (11716480_a_at) / RFU GAP43 (11754022_s_at) / Fold change /veh GAP43 (11754022_s_at) / RFU A4GNT (11735810_at) / Fold change /veh A4GNT (11735810_at) / RFU PRB3 (11715151_x_at) / Fold change /veh PRB3 (11715151_x_at) / RFU TUBB4B (11761932_at) / Fold change /veh TUBB4B (11761932_at) / RFU CAPN14 (11732068_a_at) / Fold change /veh CAPN14 (11732068_a_at) / RFU TMCC2 (11721928_a_at) / Fold change /veh TMCC2 (11721928_a_at) / RFU IRGQ (11745062_a_at) / Fold change /veh IRGQ (11745062_a_at) / RFU FAM174B (11720279_a_at) / Fold change /veh FAM174B (11720279_a_at) / RFU TMPRSS4 (11748680_a_at) / Fold change /veh TMPRSS4 (11748680_a_at) / RFU FAM212B (11763350_a_at) / Fold change /veh FAM212B (11763350_a_at) / RFU PLEKHG5 (11743358_a_at) / Fold change /veh PLEKHG5 (11743358_a_at) / RFU ZSCAN30 (11745921_a_at) / Fold change /veh ZSCAN30 (11745921_a_at) / RFU CMKLR1 (11741424_a_at) / Fold change /veh CMKLR1 (11741424_a_at) / RFU LOC101060620 /// MAPK8IP1 (11723275_at) / Fold change /veh LOC101060620 /// MAPK8IP1 (11723275_at) / RFU SPTSSB (11747773_x_at) / Fold change /veh SPTSSB (11747773_x_at) / RFU PRSS12 (11739890_at) / Fold change /veh PRSS12 (11739890_at) / RFU BIN1 (11741810_x_at) / Fold change /veh BIN1 (11741810_x_at) / RFU WNT11 (11732464_a_at) / Fold change /veh WNT11 (11732464_a_at) / RFU C10orf10 (11716521_a_at) / Fold change /veh C10orf10 (11716521_a_at) / RFU C5orf56 (11738089_at) / Fold change /veh C5orf56 (11738089_at) / RFU CYB561 (11721691_x_at) / Fold change /veh CYB561 (11721691_x_at) / RFU ANKRD19P (11752326_a_at) / Fold change /veh ANKRD19P (11752326_a_at) / RFU OR2T12 /// OR2T33 /// OR2T8 (11738714_s_at) / Fold change /veh OR2T12 /// OR2T33 /// OR2T8 (11738714_s_at) / RFU VCAN (11748164_a_at) / Fold change /veh VCAN (11748164_a_at) / RFU JSRP1 (11732532_at) / Fold change /veh JSRP1 (11732532_at) / RFU KRTAP10-11 (11738290_x_at) / Fold change /veh KRTAP10-11 (11738290_x_at) / RFU MYO3A (11730013_a_at) / Fold change /veh MYO3A (11730013_a_at) / RFU EBF3 (11725865_a_at) / Fold change /veh EBF3 (11725865_a_at) / RFU CAMK2N1 (11719241_x_at) / Fold change /veh CAMK2N1 (11719241_x_at) / RFU C5orf56 (11738088_a_at) / Fold change /veh C5orf56 (11738088_a_at) / RFU OLFML3 (11715873_a_at) / Fold change /veh OLFML3 (11715873_a_at) / RFU LOC100653217 /// NTM (11731650_a_at) / Fold change /veh LOC100653217 /// NTM (11731650_a_at) / RFU MAPK11 (11762145_a_at) / Fold change /veh MAPK11 (11762145_a_at) / RFU FIZ1 (11724087_x_at) / Fold change /veh FIZ1 (11724087_x_at) / RFU OASL (11726364_x_at) / Fold change /veh OASL (11726364_x_at) / RFU SOX15 (11748057_x_at) / Fold change /veh SOX15 (11748057_x_at) / RFU CD79A (11719716_a_at) / Fold change /veh CD79A (11719716_a_at) / RFU HIST1H1D (11736915_at) / Fold change /veh HIST1H1D (11736915_at) / RFU CASKIN2 (11723855_a_at) / Fold change /veh CASKIN2 (11723855_a_at) / RFU LOC730098 (11760151_x_at) / Fold change /veh LOC730098 (11760151_x_at) / RFU OR4N2 (11742367_at) / Fold change /veh OR4N2 (11742367_at) / RFU PRRT2 (11749266_a_at) / Fold change /veh PRRT2 (11749266_a_at) / RFU SNX32 (11753110_a_at) / Fold change /veh SNX32 (11753110_a_at) / RFU CDHR5 (11726645_a_at) / Fold change /veh CDHR5 (11726645_a_at) / RFU RCAN1 (11760418_a_at) / Fold change /veh RCAN1 (11760418_a_at) / RFU FAM167A (11723789_a_at) / Fold change /veh FAM167A (11723789_a_at) / RFU FAM26E (11764081_at) / Fold change /veh FAM26E (11764081_at) / RFU ISYNA1 (11749810_s_at) / Fold change /veh ISYNA1 (11749810_s_at) / RFU ACY1 (11761880_at) / Fold change /veh ACY1 (11761880_at) / RFU 11764098_at / Fold change /veh 11764098_at / RFU SAMD14 (11745864_x_at) / Fold change /veh SAMD14 (11745864_x_at) / RFU NPB (11741838_a_at) / Fold change /veh NPB (11741838_a_at) / RFU TMPRSS6 (11731388_a_at) / Fold change /veh TMPRSS6 (11731388_a_at) / RFU KRTAP10-2 (11738614_at) / Fold change /veh KRTAP10-2 (11738614_at) / RFU ARHGAP8 /// PRR5-ARHGAP8 (11727945_x_at) / Fold change /veh ARHGAP8 /// PRR5-ARHGAP8 (11727945_x_at) / RFU KRTAP5-7 /// NADSYN1 (11734609_at) / Fold change /veh KRTAP5-7 /// NADSYN1 (11734609_at) / RFU RASL12 (11751679_a_at) / Fold change /veh RASL12 (11751679_a_at) / RFU CDKN2B (11736163_a_at) / Fold change /veh CDKN2B (11736163_a_at) / RFU PRF1 (11729649_at) / Fold change /veh PRF1 (11729649_at) / RFU, ZNF638 /// ZNF638-IT1 / Fold change vs veh, ZNF638 /// ZNF638-IT1 / RFU, PANK3 / Fold change vs veh, PANK3 / RFU, SH3YL1 / Fold change vs veh, SH3YL1 / RFU, ZEB2 / Fold change vs veh, ZEB2 / RFU, NRIP1 / Fold change vs veh, NRIP1 / RFU, PTTG1IP / Fold change vs veh, PTTG1IP / RFU, CAPN2 / Fold change vs veh, CAPN2 / RFU, MED14 / Fold change vs veh, MED14 / RFU, SNORA58 / Fold change vs veh, SNORA58 / RFU, C1orf63 / Fold change vs veh, C1orf63 / RFU, LRRFIP1 / Fold change vs veh, LRRFIP1 / RFU, NDUFAF7 / Fold change vs veh, NDUFAF7 / RFU, SLC12A2 / Fold change vs veh, SLC12A2 / RFU, IBTK / Fold change vs veh, IBTK / RFU, ESF1 / Fold change vs veh, ESF1 / Fold change vs veh, TMEM50B / RFU, TAOK1 / Fold change vs veh, TAOK1 / RFU, ACBD3 / Fold change vs veh, ACBD3 / RFU, TMA16 / Fold change vs veh, TMA16 / RFU, RWDD3 / Fold change vs veh, RWDD3 / RFU, BCAT1 / Fold change vs veh, BCAT1 / RFU, EDEM3 / Fold change vs veh, EDEM3 / RFU, TMEM33 / Fold change vs veh, TMEM33 / RFU, WDR75 / Fold change vs veh, WDR75 / RFU, AHCTF1 / Fold change vs veh, AHCTF1 / RFU, TFRC / Fold change vs veh, TFRC / RFU, ZDHHC17 / Fold change vs veh, ZDHHC17 / RFU, NOM1 / Fold change vs veh, NOM1 / RFU, ARL8B / Fold change vs veh, ARL8B / RFU, ZBTB11 / Fold change vs veh, ZBTB11 / RFU, TAMM41 / Fold change vs veh, TAMM41 / RFU, KIAA1704 /// LOC100996395 / Fold change vs veh, KIAA1704 /// LOC100996395 / RFU, ING1 / Fold change vs veh, ING1 / RFU, TRMT61B / Fold change vs veh, TRMT61B / RFU, FUBP3 / Fold change vs veh, FUBP3 / RFU, TP53 / Fold change vs veh, TP53 / RFU, TNKS2 / Fold change vs veh, TNKS2 / RFU, ZFP14 / Fold change vs veh, ZFP14 / RFU, ACTR2 / Fold change vs veh, ACTR2 / RFU, PPP3R1 / Fold change vs veh, PPP3R1 / RFU, PIK3R1 / Fold change vs veh, PIK3R1 / RFU, HNRNPA1 / Fold change vs veh, HNRNPA1 / RFU, RNF170 / Fold change vs veh, RNF170 / RFU, ZNF28 / Fold change vs veh, ZNF28 / RFU, RNGTT / Fold change vs veh, RNGTT / RFU, OGT / Fold change vs veh, OGT / RFU, BRD1 / Fold change vs veh, BRD1 / RFU, MARS / Fold change vs veh, MARS / RFU, ZNF655 / Fold change vs veh, ZNF655 / RFU, FAHD1 / Fold change vs veh, FAHD1 / RFU, BDP1 / Fold change vs veh, BDP1 / RFU, LRRCC1 / Fold change vs veh, LRRCC1 / RFU, ARID1A / Fold change vs veh, ARID1A / RFU, ZNF146 / Fold change vs veh, ZNF146 / RFU, ZNF330 / Fold change vs veh, ZNF330 / RFU, GPN3 / Fold change vs veh, GPN3 / RFU, C9orf123 / Fold change vs veh, C9orf123 / RFU, N4BP2L2 / Fold change vs veh, N4BP2L2 / RFU, ARFIP1 / Fold change vs veh, ARFIP1 / RFU, FAM179B / Fold change vs veh, FAM179B / RFU, BCL10 / Fold change vs veh, BCL10 / RFU, UHRF1BP1L / Fold change vs veh, UHRF1BP1L / RFU, BET1 / Fold change vs veh, BET1 / RFU, CNOT2 / Fold change vs veh, CNOT2 / RFU, ZNF268 / Fold change vs veh, ZNF268 / Fold change vs veh, ZNF507 / RFU, DGCR2 / Fold change vs veh, DGCR2 / RFU, WDSUB1 / Fold change vs veh, WDSUB1 / Fold change vs veh, HSP90B1 /// MIR3652 / RFU, ADSS / Fold change vs veh, ADSS / RFU, GK / Fold change vs veh, GK / RFU, ZNF148 / Fold change vs veh, ZNF148 / RFU, TAF9 / Fold change vs veh, TAF9 / RFU, SLC1A5 / Fold change vs veh, SLC1A5 / RFU, SLMO2 / Fold change vs veh, SLMO2 / RFU, ABCC4 / Fold change vs veh, ABCC4 / RFU, LOC101060439 /// RAP1B / Fold change vs veh, LOC101060439 /// RAP1B / RFU, RFX7 / Fold change vs veh, RFX7 / RFU, GTPBP10 / Fold change vs veh, GTPBP10 / RFU, CNEP1R1 / Fold change vs veh, CNEP1R1 / RFU, BIVM-ERCC5 /// ERCC5 / Fold change vs veh, BIVM-ERCC5 /// ERCC5 / RFU, ILF3 / Fold change vs veh, ILF3 / RFU 11762660_at / Fold change /veh 11762660_at / RFU VCAN (11757783_s_at) / Fold change /veh VCAN (11757783_s_at) / RFU DDX43 (11728927_at) / Fold change /veh DDX43 (11728927_at) / RFU KRT8 (11758188_x_at) / Fold change /veh KRT8 (11758188_x_at) / RFU NKD1 (11759106_at) / Fold change /veh NKD1 (11759106_at) / RFU SRD5A1 (11742802_a_at) / Fold change /veh SRD5A1 (11742802_a_at) / RFU TPSAB1 /// TPSB2 (11721975_s_at) / Fold change /veh TPSAB1 /// TPSB2 (11721975_s_at) / RFU GSTM3 (11746129_a_at) / Fold change /veh GSTM3 (11746129_a_at) / RFU IL23R (11737362_x_at) / Fold change /veh IL23R (11737362_x_at) / RFU TMEM51 (11727254_a_at) / Fold change /veh TMEM51 (11727254_a_at) / RFU PIWIL2 (11732686_x_at) / Fold change /veh PIWIL2 (11732686_x_at) / RFU ORM1 (11744905_x_at) / Fold change /veh ORM1 (11744905_x_at) / RFU CCDC152 (11743942_at) / Fold change /veh CCDC152 (11743942_at) / RFU ECM1 (11717891_a_at) / Fold change /veh ECM1 (11717891_a_at) / RFU IL23R (11748794_a_at) / Fold change /veh IL23R (11748794_a_at) / RFU TNFAIP8L3 (11732012_x_at) / Fold change /veh TNFAIP8L3 (11732012_x_at) / RFU MBOAT4 (11741988_at) / Fold change /veh MBOAT4 (11741988_at) / RFU 11764193_at / Fold change /veh 11764193_at / RFU TMEM53 (11763286_at) / Fold change /veh TMEM53 (11763286_at) / RFU MAGEB2 (11727129_at) / Fold change /veh MAGEB2 (11727129_at) / RFU TMEM200A (11744735_a_at) / Fold change /veh TMEM200A (11744735_a_at) / RFU CCDC152 (11751479_a_at) / Fold change /veh CCDC152 (11751479_a_at) / RFU FAM211A (11726209_a_at) / Fold change /veh FAM211A (11726209_a_at) / RFU RGS16 (11746705_a_at) / Fold change /veh RGS16 (11746705_a_at) / RFU VCAN (11755009_s_at) / Fold change /veh VCAN (11755009_s_at) / RFU RHOB (11743442_s_at) / Fold change /veh RHOB (11743442_s_at) / RFU RGS16 (11720943_a_at) / Fold change /veh RGS16 (11720943_a_at) / RFU RGS16 (11720944_at) / Fold change /veh RGS16 (11720944_at) / RFU, VPS4B / Fold change vs veh, VPS4B / RFU, CREB1 / Fold change vs veh, CREB1 / RFU, DNAJC13 / Fold change vs veh, DNAJC13 / RFU, GNAQ / Fold change vs veh, GNAQ / RFU, CDK5R1 / Fold change vs veh, CDK5R1 / RFU, ZRANB3 / Fold change vs veh, ZRANB3 / RFU, CUL4A / Fold change vs veh, CUL4A / RFU, CCNY / Fold change vs veh, CCNY / RFU, UFL1 / Fold change vs veh, UFL1 / RFU, COG3 / Fold change vs veh, COG3 / RFU, DIAPH2 / Fold change vs veh, DIAPH2 / RFU, SKA2 / Fold change vs veh, SKA2 / RFU, AFF3 / Fold change vs veh, AFF3 / RFU, LMF1 / Fold change vs veh, LMF1 / RFU, IPO11 / Fold change vs veh, IPO11 / RFU, DFFB / Fold change vs veh, DFFB / RFU, FOXP1 / Fold change vs veh, FOXP1 / RFU, CARD8 / Fold change vs veh, CARD8 / RFU, STRN3 / Fold change vs veh, STRN3 / RFU, ADK / Fold change vs veh, ADK / RFU, RASSF2 / Fold change vs veh, RASSF2 / RFU, WIPF1 / Fold change vs veh, WIPF1 / RFU, LARP1B / Fold change vs veh, LARP1B / RFU, RASA1 / Fold change vs veh, RASA1 / RFU, RB1 / Fold change vs veh, RB1 / RFU, PPFIA1 / Fold change vs veh, PPFIA1 / RFU, MAT2A / Fold change vs veh, MAT2A / RFU, CCT5 / Fold change vs veh, CCT5 / RFU, WDR92 / Fold change vs veh, WDR92 / RFU, CUX1 / Fold change vs veh, CUX1 / RFU, TTC7A / Fold change vs veh, TTC7A / RFU, TMEM135 / Fold change vs veh, TMEM135 / RFU, DEPTOR / Fold change vs veh, DEPTOR / RFU, CPM / Fold change vs veh, CPM / RFU, DNAJB6 / Fold change vs veh, DNAJB6 / RFU, CACNA2D3 / Fold change vs veh, CACNA2D3 / RFU, DTX4 / Fold change vs veh, DTX4 / RFU, TFCP2 / Fold change vs veh, TFCP2 / RFU, GMCL1 /// GMCL1P1 / Fold change vs veh, GMCL1 /// GMCL1P1 / RFU, AEBP2 / Fold change vs veh, AEBP2 / RFU, SNHG1 /// SNORD22 /// SNORD25 /// SNORD26 /// SNORD27 /// SNORD28 /// SNORD29 /// SNORD31 / Fold change vs veh, SNHG1 /// SNORD22 /// SNORD25 /// SNORD26 /// SNORD27 /// SNORD28 /// SNORD29 /// SNORD31 / Fold change (Aza/veh), C12orf56 (ProbeSet 11735607_a_at) / Fold change (ACY-1035/veh), C12orf56 (ProbeSet 11735607_a_at) / Fold change (Aza/veh), FGFR1OP (ProbeSet 11751329_s_at) / Fold change (ACY-1035/veh), FGFR1OP (ProbeSet 11751329_s_at) / Fold change (Aza/veh), VPS36 (ProbeSet 11739960_a_at) / Fold change (ACY-1035/veh), VPS36 (ProbeSet 11739960_a_at) / RFU SYPL1 (11715823_x_at) / Fold change /veh SYPL1 (11715823_x_at) / RFU IGFBP7 (11715501_s_at) / Fold change /veh IGFBP7 (11715501_s_at) / RFU REEP3 (11722064_at) / Fold change /veh REEP3 (11722064_at) / RFU IGLL1 (11728026_x_at) / Fold change /veh IGLL1 (11728026_x_at): dose or concentration left out as unconfirmed
# Conditions: MV-4-11 cells, 48 hours
compound,measurement,value
Nc1ccc(-c2cccs2)cc1NC(=O)c1ccc2c(c1)cc(C1CC1)n2CCN1CCOCC1 [ACY-1035],Fold change /veh PRSS12 (11739890_at),1.14
